Test results taken from US20100004284A1, “Novel Heterocyclic Compounds as Positive Allosteric Modulators of Metabotropic Glutamate Receptors” (ADDEX PHARMA SA, priority 2005, published 2010).
pEC50, pIC50: −log10 of the molar value.

Key:
rat mGluR5 = biological target: T1, rat mGluR5 (Rattus norvegicus, UniProt P31424); assay: mGluR5 assay on HEK-expressing rat mGluR5 (fluorescent cell based Ca2+ mobilization assay); settings: HEK-293 cells stably expressing rat mGluR5; no co-addition of glutamate; mean of at least three independent experiments in duplicate; read-out: Ca++ Flux (mean EC50)
T1 construct: expressed in transfected cells
T1 sequence (P31424 21-1171 isoform P31424-2 limits assumed): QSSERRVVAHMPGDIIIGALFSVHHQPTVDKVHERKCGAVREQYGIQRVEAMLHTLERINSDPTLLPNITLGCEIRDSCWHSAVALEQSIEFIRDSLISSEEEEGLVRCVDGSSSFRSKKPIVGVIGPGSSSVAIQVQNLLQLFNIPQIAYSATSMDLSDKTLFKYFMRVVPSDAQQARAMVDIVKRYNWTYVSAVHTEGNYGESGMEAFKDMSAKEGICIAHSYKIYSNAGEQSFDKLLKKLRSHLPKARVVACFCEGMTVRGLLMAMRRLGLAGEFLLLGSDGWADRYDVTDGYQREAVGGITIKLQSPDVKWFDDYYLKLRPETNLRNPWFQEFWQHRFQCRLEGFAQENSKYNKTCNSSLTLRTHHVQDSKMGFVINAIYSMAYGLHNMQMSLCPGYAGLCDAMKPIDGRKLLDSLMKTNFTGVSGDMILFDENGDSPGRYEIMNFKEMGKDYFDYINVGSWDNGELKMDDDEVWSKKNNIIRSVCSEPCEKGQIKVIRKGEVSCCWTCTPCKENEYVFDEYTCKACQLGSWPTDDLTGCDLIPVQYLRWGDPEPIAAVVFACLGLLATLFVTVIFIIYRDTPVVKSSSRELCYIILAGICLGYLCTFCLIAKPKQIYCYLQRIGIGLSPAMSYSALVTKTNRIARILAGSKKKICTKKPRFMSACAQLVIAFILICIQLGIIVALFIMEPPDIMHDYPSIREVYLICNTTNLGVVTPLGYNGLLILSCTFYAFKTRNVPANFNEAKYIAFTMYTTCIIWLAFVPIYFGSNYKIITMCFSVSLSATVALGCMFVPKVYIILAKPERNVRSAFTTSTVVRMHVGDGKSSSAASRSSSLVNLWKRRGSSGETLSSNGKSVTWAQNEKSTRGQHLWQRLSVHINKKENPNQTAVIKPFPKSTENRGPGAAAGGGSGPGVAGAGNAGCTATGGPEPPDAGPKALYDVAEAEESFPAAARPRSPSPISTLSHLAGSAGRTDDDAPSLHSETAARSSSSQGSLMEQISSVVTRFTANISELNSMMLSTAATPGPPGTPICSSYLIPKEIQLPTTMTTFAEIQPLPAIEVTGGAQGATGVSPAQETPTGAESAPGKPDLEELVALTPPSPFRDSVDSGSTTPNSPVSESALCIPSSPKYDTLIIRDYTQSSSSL
Procedure: Positive functional expression of HEK-293 cells stably expressing rat mGluR5 receptor was determined by measuring intracellular Ca^2+ changes using a Fluorometric Imaging Plate Reader (FLIPR, Molecular Devices, Sunnyvale, Calif.) in response to glutamate or selective known mGluR5 agonists and antagonists. Rat mGluR5RT-PCR products in HEK-293 cells were sequenced and found 100% identical to rat mGluR5Genbank reference sequence (NM_017012). HEK-293 cells expressing rmGluR5 were maintained in media containing DMEM, dialyzed Fetal Bovine Serum (10%), Glutamax™ (2 mM), Penicillin (100 units/ml), Streptomycin (100 μg/ml), Geneticin (100 μg/ml) and Hygromycin-B (40 μg/ml) at 37° C./5% CO2.
After one day of incubation, cells were washed with assay buffer containing: 142 mM NaCl, 6 mM KCl, 1 mM […], 1 mM CaCl2, 20 mM HEPES, 1 g/L glucose, 0.125 mM sulfinpyrazone, pH 7.4. After 60 min of loading with 4 uM Fluo-4 (TefLabs, Austin, Tex.), the cells were washed three times with 50 μl of PBS Buffer and resuspended in 45 μl of assay Buffer. The plates were then transferred to a Fluorometric Imaging Plate Reader (FLIPR, Molecular Devices, Sunnyvale, Calif.) for the assessment of intracellular calcium flux. After monitoring the baseline fluorescence for 10 seconds, increasing concentrations of representative compound (from 0.01 to 60 μM) of the present invention diluted in Assay Buffer (15 μl of 4× dilutions) was added to the cell. The final DMSO concentration in the assay was 0.3%. In each experiment, fluorescence was then monitored as a function of time for 3 minutes and the data analyzed using Microsoft Excel and GraphPad Prism. Each data point was also measured two times.
Under these experimental conditions, this HEK-rat mGluR5 cell line is able to directly detect positive allosteric modulators without the need of co-addition of glutamate or mGluR5 agonist.
The concentration-response curves of representative compounds of the present invention were generated using the Prism GraphPad software (Graph Pad Inc, San Diego, USA). The curves were fitted to a four-parameter logistic equation:
(Y=Bottom+(Top−Bottom)/(1+10̂((Log EC50−X)*Hill Slope)
allowing determination of EC50 values.
The Table 5 below represents the mean EC50 obtained from at least three independent experiments of selected molecules performed in duplicate.

mGluR5 = biological target: T2, mGluR5 (Rattus norvegicus, UniProt P31424); assay: mGluR5 binding assay ([3H]-MPEP radioligand binding, rat brain membranes); settings: 3 nM [3H]-MPEP, 1 h at 4° C., read-out: IC50, inhibition of [3H]-MPEP binding
T2 construct: positive allosteric modulators of mGluR5 receptors in native preparations; endogenous in cells; host or cells: primary cortical astrocytes from Sprague-Dawley rat embryos (E16-19)
T2 sequence (P31424 21-1203): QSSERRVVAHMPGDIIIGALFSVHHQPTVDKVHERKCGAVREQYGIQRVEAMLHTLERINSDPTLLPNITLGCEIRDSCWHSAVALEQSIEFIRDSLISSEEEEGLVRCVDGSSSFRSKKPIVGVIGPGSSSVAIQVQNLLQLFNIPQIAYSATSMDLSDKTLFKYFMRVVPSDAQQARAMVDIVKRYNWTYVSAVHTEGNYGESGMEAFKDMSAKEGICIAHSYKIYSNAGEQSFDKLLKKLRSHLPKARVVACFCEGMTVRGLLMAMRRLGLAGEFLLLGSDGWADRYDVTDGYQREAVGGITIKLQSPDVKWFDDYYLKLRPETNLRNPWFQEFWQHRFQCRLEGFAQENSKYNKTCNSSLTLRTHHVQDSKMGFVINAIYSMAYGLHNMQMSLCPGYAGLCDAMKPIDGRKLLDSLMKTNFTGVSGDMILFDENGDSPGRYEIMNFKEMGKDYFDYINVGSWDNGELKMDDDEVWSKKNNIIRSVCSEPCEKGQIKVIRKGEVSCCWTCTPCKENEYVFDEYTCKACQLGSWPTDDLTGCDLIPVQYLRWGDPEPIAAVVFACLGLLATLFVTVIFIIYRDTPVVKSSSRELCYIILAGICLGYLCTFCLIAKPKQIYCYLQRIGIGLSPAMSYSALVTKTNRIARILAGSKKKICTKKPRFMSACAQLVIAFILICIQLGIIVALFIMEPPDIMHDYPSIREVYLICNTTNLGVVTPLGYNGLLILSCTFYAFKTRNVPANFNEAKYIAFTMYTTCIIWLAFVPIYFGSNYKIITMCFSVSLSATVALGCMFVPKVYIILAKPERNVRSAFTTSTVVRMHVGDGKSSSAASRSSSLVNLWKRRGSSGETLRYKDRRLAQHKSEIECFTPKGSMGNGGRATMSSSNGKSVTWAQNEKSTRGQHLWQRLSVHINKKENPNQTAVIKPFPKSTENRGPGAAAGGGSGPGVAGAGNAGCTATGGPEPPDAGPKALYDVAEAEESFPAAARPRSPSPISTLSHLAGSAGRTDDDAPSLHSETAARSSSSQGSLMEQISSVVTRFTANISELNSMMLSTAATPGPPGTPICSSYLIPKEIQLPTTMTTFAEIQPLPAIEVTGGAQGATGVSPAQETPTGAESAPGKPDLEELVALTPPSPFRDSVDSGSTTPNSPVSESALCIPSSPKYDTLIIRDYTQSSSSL
Description: Activity of compounds of the invention was examined following a radioligand binding technique using whole rat brain and tritiated 2-methyl-6-(phenylethynyl)-pyridine ([^3H]-MPEP) as a ligand following similar methods than those described in Gasparini et al. (2002) Bioorg. Med. Chem. Lett. 12:407-409 and in Anderson et al. (2002) J. Pharmacol. Exp. Ther. 303 (3) 1044-1051.
Cortices were dissected out from brains of 200-300 g Sprague-Dawley rats (Charles River Laboratories, L'Arbresle, France). Tissues were homogenized in 10 volumes (vol/wt) of ice-cold 50 mM HEPES-NaOH (pH 7.4) using a Polytron disrupter (Kinematica AG, Luzern, Switzerland) and centrifuged for 30 min at 40,000 g. (4° C.). […] Protein concentration was determined by the Bradford method (Bio-Rad protein assay, Reinach, Switzerland) with bovine serum albumin as standard.
Membranes were thawed and resuspended in binding buffer containing 20 mM HEPES-NaOH, 3 mM MgCl2, 3 mM CaCl2, 100 mM NaCl, pH 7.4. […] Radioactivity was determined by liquid scintillation spectrometry using a 96-well plate reader (TopCount, Perkin-Elmer, Downers Grove, USA).
The inhibition curves were generated using the Prism GraphPad program (Graph Pad Software Inc, San Diego, USA). […] The mean of IC50 obtained from at least three independent experiments of selected molecules performed in duplicate were calculated.

O=C(c1ccc(F)cc1)N1CCC[C@H](c2nc(Cc3ccc(F)cc3)no2)C1 [Example 1, {(S)-3-[3-(4-Fluoro-benzyl)-[1,2,4]oxadiazol-5-yl]-piperidin-1-yl}-(4-fluoro-phenyl)-methanone]
pEC50 (rat mGluR5): > 6.00 | pIC50 (mGluR5): > 4.52
